Test results reported in US20140066394A1, “Substituted 6-(Benzylamino) Purine Riboside Derivatives, Use Thereof and Compositions Containing These Derivatives” (Biopatterns, S.R.O, priority 2009, published 2014).

Legend:
Format in all cases: cell-based
neutrophils [1] = experiment: Neutrophil superoxide generation, lucigenin based assay; conditions: Homo sapiens, primed neutrophils, compound 10 minutes prior to fMLP (FIG. 2)
Experimental: Neutrophils were cultured at 2×10^6 cells/ml in RPMI1640 medium containing human serum antibiotics and 20 ng/ml TNFα for 10 minutes prior to addition of a range of concentrations of compound 10. Generation of superoxide was determined over a 10 minute period using a lucigenin based assay. The area under the curve was calculated to give superoxide generation over the whole assay period.
(§1) Anti-inflammatory effects against neutrophils were determined by assessing effects of several of the compounds on neutrophil inflammatory activity (superoxide generation, secretion of chemoattractant IL8 and degranulation to release myeloperoxidase). Neutrophils were isolated from human blood to a purity of greater than 95% and were cultured in RPMI1640 medium containing 2% human AB serum, 2 mM L-glutamine and antibiotics (100 U/ml penicillin, […] streptomycin). Neutrophils were primed for 30 minutes with 50 ng/ml GM-CSF prior to treatment with the bacterial stimulant fMLP (100 ng/ml) and measurement of superoxide generation in a lucigenin based assay (see Pongracz J and Lord J M 1998, Biochem. Biophys. Res. Commun. 247, 624-629) and release of IL8 and myeloperoxidase using an ELISA method. The novel compounds were added to the culture at a range of concentrations (0.1-100 μM) 10 minutes prior to addition of fMLP. […]

neutrophils [2] = experiment: Neutrophil IL8 release, ELISA; conditions: Homo sapiens, primed neutrophils, ELISA (FIG. 3)
Experimental: (§2) Neutrophils were cultured at 2×10^6 cells/ml in RPMI1640 medium containing human serum antibiotics and 20 ng/ml TNFα for 10 minutes prior to addition of a range of concentrations of compound 10. Release of IL8 was monitored after a 4 h period by ELISA. Data are mean of duplicate measurements representative of 5 separate experiments.
as §1

neutrophils [3] = experiment: Neutrophil degranulation, release of myeloperoxidase, ELISA; conditions: Homo sapiens, primed neutrophils, ELISA (FIG. 4)
Experimental: as §2, with “MPO” for “IL8”, “30 minute” for “4 h”
as §1

neutrophils [4] = experiment: ANCA stimulated neutrophil degranulation (MPO release, ELISA); conditions: Homo sapiens, 0.5 h, TNFα primed, MPO release over 30 minute period (FIG. 10), read-out: IC50 of inhibition of ANCA stimulated neutrophil degranulation
Experimental: FIG. 10 Inhibition of ANCA induced neutrophil degranulation by compound 10. Neutrophils were cultured at 2×10^6 cells/ml in RPMI1640 medium containing human serum antibiotics and 20 ng/ml TNFα for 10 minutes prior to addition of ANCA (1=MPO ANCA; 2=PR3 ANCA) and a range of concentrations of compound 10. Release of MPO was monitored after a 30 minute period by ELISA.
ANCA are predominantly IgG autoantibodies directed against constituents of primary granules of neutrophils (PR3 and MPO). ANCA associated vasculitis is the most common primary systemic small-vessel vasculitis in adults. […] Neutrophils were cultured for 10 hours in RPMI1640 medium containing 2% human AB serum, 2 mM L-glutamine and antibiotics (100 U/ml penicillin, […] streptomycin) and their apoptosis determined by staining with Giemsa stain and observing an apoptotic morphology by light microscopy. […] The ability of compound 10 to inhibit ANCA-induced neutrophil inflammatory functions was also determined Neutrophils were cultured in RPMI1640 medium containing 2% human AB serum, 2 mM L-glutamine and antibiotics (100 U/ml penicillin, […] streptomycin). […] ANCA stimulated degranulation of neutrophils was assessed by release of myeloperoxidase in to the medium over a 30 minute period, with MPO measured by ELISA. […] HUVEC viability was determined by trypan blue staining and light microscopy.

[5] = tested on: human umbilical vein endothelial cells (HUVEC); experiment: Neutrophil mediated damage to endothelial cells (HUVEC viability, trypan blue); parameters: death of HUVEC treated with TNF-primed neutrophils: dose or concentration left out as unconfirmed
Experimental: HUVEC were cultured to confluence in tissue culture plates and incubated overnight with neutrophils treated with 20 ng/ml TNFα (+TNF),
[…] Viable cells remain attached to the plastic wells and are visualised by phase contrast light microscopy. The image shown is representative of 3 separate experiments.
ANCA are predominantly IgG autoantibodies directed against constituents of primary granules of neutrophils (PR3 and MPO). ANCA associated vasculitis is the most common primary systemic small-vessel vasculitis in adults. The common pathology of this disease is focal necrotizing lesions of blood vessels and may affect different vessels and organs. […] Neutrophils were cultured for 10 hours in RPMI1640 medium containing 2% human AB serum, 2 mM L-glutamine and antibiotics (100 U/ml penicillin, […] streptomycin) and their apoptosis determined by staining with Giemsa stain and observing an apoptotic morphology by light microscopy. […] The ability of compound 10 to inhibit ANCA-induced neutrophil inflammatory functions was also determined Neutrophils were cultured in RPMI1640 medium containing 2% human AB serum, 2 mM L-glutamine and antibiotics (100 U/ml penicillin, […] streptomycin). […] ANCA stimulated degranulation of neutrophils was assessed by release of myeloperoxidase in to the medium over a 30 minute period, with MPO measured by ELISA. […]

IC50 (neutrophils [1]): 5 µM
IC50 (neutrophils [2]): 0.05 µM
IC50 (neutrophils [3]): 4 µM
IC50 (neutrophils [4]): 3 µM
Compound: COc1cccc(CNc2nc(Cl)nc3c2ncn3C2OC(CO)C(O)C2O)c1O (stereo not drawn) [Compound 10, 2-Chloro-6-(2-hydroxy-3-methoxybenzylamino)purine riboside]
HUVEC cell death in the presence of ANCA ([5]; ANCA-activated TNF primed-neutrophils, 24 h (90% without compound)): 50%
death of HUVEC treated with TNF-primed neutrophils ([5]; overnight / 24 h, without ANCA): completely block the death of HUVEC
